Tested on: Hs578T multi-cell spheroids, viability
Test: Anticancer human tumor Hs578T cell line growth inhibition [IpAb];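 also: drug exposure lasted 7 days before readout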
Settings: for IC50: curve of first compound; for viability, T/C: stronger effect = lower value
Source text: Combinatorial screen of targeted agents with ipatasertib and abemaciclib in multi-cell type tumor spheroids
A high-throughput screen of multi-cell type tumor spheroids was designed to identify active combinations of targeted small molecules and ipatasertib or abemaciclib. Complex spheroids include a stromal component modeled by human endothelial cells (HUVEC) and fibroblasts modeled by human mesenchymal stem cells (MSCs). The concentration ranges selected for each drug and investigational agent were based upon clinically achievable concentrations if the clinical Cmax of the agent was known.
Compounds. The drugs and investigational agents: ipatasertib (NSC767898), abemaciclib(NSC768073), selumetinib (NSC741078), trametinib (758246), adavosertib (NSC754352), everolimus (NSC733504), sapanisertib (NSC764658), vemurafenib (NSC761431), venetoclax (NSC766270), copanlisib (NSC809693), apelisib (NSC765974), palbociblib (NSC758247), vemurafenib (NSC761431), dabrafenib (NSC764134), ravoxertinib (NSC781343), BMS-387032 (NSC767048), sotorasib (NSC818433), talazoparib (NSC767125) and afursertib (NSC778305), were obtained from the National Cancer Institute (NCI) Developmental Therapeutics Program Chemical Repository. The FDA-approved anticancer drug set is available from the NCI Developmental Therapeutics Program. […] The stock solutions were prepared in dimethyl sulfoxide (DMSO, Sigma-Aldrich, St. Louis, MO, cat. D2650) at 800-fold the tested concentration and stored at -70 degrees C prior to their use. All drugs and investigational agents were tested over a range starting from a high concentration at or near the clinical Cmax and decreasing in half-log increments. If the clinical Cmax for an agent had not been determined, the highest concentration tested was 10 microM.
NCI60 Cell Culture. NCI60 cell lines were obtained from the NCI Developmental Therapeutics Program Tumor Repository. For each lot of cells, the Repository performed Applied Biosystems AmpFLSTR Identifiler testing with PCR amplification to confirm consistency with the published Identifier STR profile for each cell line. Cells were kept in continuous culture for no more than 20 passages. The optimal seeding densities for each of the cell lines at each time point assessed were determined prior to performing the concentration response studies. Briefly, the NCI60 human tumor lines were grown as monolayers in RPMI 1640 medium supplemented with 10% FBS and 2 mmol/L L-glutamine.
An additional 9 lines were from the NCI60 cell line panel including MDA-MB-231 breast carcinoma, MDA-MB-468 breast carcinoma, MCF7 breast carcinoma, Hs578T breast carcinoma, MALME-3M melanoma, SK-MEL-2 melanoma, SK-OV-3 ovarian carcinoma, DU-145 prostate carcinoma, PC-3 prostate carcinoma, all cell lines along with major genetic alterations are listed on Table 2. Pooled donor human umbilical vein endothelial cells (HUVEC, Lonza, cat. CC-2519) and human mesenchymal stem cells (hMSC, Lonza, cat. PT-2501) were purchased from Lonza (Walkersville, MD).
PDMR cell lines were grown in complete medium (DC medium): Dulbecco's modified Eagle's medium (DMEM)/F12 supplemented with 5% fetal bovine serum (FBS), 2 mM L-glutamine, 100 U/mL penicillin and 100 µg/ml streptomycin, 0.4 µg/ml hydrocortisone, 10 ng/ml epidermal growth factor (EGF) recombinant human protein, 24 µg/mL adenine, and 0.1 mg/mL primocin. During culture from frozen stock vials, PDMR cells were cultured in the same medium containing 10 µM Y-27632 (see Table 3). The PDCs were cultured in complete DMEM/F12 media without 10 microM Y-27632 dihydrochloride for at least two passages prior to the screen. The pooled donor HUVEC and hMSC were cultured in endothelial cell growth medium 2 (PromoCell, Heidelberg, Germany, cat. C-22011) and mesenchymal stem cell growth medium 2 (PromoCell, cat. C-28009), respectively. For all experiments, HUVEC and hMSC were used at passages </=5.
[…]

[1] = second compound 0.1 µM, first compound 0.0316 µM
[2] = second compound 0.1 µM, first compound 0.1 µM
[3] = second compound 0.316 µM, first compound 0.0316 µM
[4] = second compound 0.316 µM, first compound 0.1 µM
[5] = second compound 1 µM, first compound 0.0316 µM
[6] = second compound 1 µM, first compound 0.1 µM
[7] = second compound 3.16 µM, first compound 0.0316 µM
[8] = second compound 3.16 µM, first compound 0.1 µM
[9] = second compound 10 µM, first compound 0.0316 µM
[10] = second compound 10 µM, first compound 0.1 µM
[11] = second compound 0.1 µM, first compound 0.316 µM
[12] = second compound 0.1 µM, first compound 1 µM
[13] = second compound 0.1 µM, first compound 3.16 µM
[14] = second compound 0.1 µM, first compound 10 µM
[15] = second compound 0.316 µM, first compound 0.316 µM
[16] = second compound 0.316 µM, first compound 1 µM
[17] = second compound 0.316 µM, first compound 3.16 µM
[18] = second compound 0.316 µM, first compound 10 µM
[19] = second compound 1 µM, first compound 0.316 µM
[20] = second compound 1 µM, first compound 1 µM
[21] = second compound 1 µM, first compound 3.16 µM
[22] = second compound 1 µM, first compound 10 µM
[23] = second compound 3.16 µM, first compound 0.316 µM
[24] = second compound 3.16 µM, first compound 1 µM
[25] = second compound 3.16 µM, first compound 3.16 µM
[26] = second compound 3.16 µM, first compound 10 µM
[27] = second compound 10 µM, first compound 0.316 µM
[28] = second compound 10 µM, first compound 1 µM
[29] = second compound 10 µM, first compound 3.16 µM
[30] = second compound 10 µM, first compound 10 µM

Compound: CC(C)n1nc(-c2ccc3oc(N)nc3c2)c2c(N)ncnc21 + CC(C)NCC(C(=O)N1CCN(c2ncnc3c2C(C)CC3O)CC1)c1ccc(Cl)cc1
- IC50 (second compound 0.1 µM): 5.88 nM
- IC50 (second compound 0.316 µM): 3.52 nM
- IC50 (second compound 1 µM): 1.38 nM
- IC50 (second compound 3.16 µM): < 0.316 nM
- IC50 (second compound 10 µM): < 0.316 nM
- viability, T/C (second compound 0.1 µM, first compound 0.000316 µM): 94.8%
- viability, T/C (second compound 0.1 µM, first compound 0.001 µM): 86.6%
- viability, T/C (second compound 0.1 µM, first compound 0.00316 µM): 63.7%
- viability, T/C (second compound 0.1 µM, first compound 0.01 µM): 38.6%
- viability, T/C [1]: 19.9%
- viability, T/C [2]: 15.5%
- viability, T/C (second compound 0.316 µM, first compound 0.000316 µM): 79.2%
- viability, T/C (second compound 0.316 µM, first compound 0.001 µM): 72.4%
- viability, T/C (second compound 0.316 µM, first compound 0.00316 µM): 50.8%
- viability, T/C (second compound 0.316 µM, first compound 0.01 µM): 30.7%
- viability, T/C [3]: 14.2%
- viability, T/C [4]: 11.8%
- viability, T/C (second compound 1 µM, first compound 0.000316 µM): 61.7%
- viability, T/C (second compound 1 µM, first compound 0.001 µM): 55.3%
- viability, T/C (second compound 1 µM, first compound 0.00316 µM): 37.2%
- viability, T/C (second compound 1 µM, first compound 0.01 µM): 20.7%
- viability, T/C [5]: 14%
- viability, T/C [6]: 12.2%
- viability, T/C (second compound 3.16 µM, first compound 0.000316 µM): 47.4%
- viability, T/C (second compound 3.16 µM, first compound 0.001 µM): 41.4%
- viability, T/C (second compound 3.16 µM, first compound 0.00316 µM): 28.4%
- viability, T/C (second compound 3.16 µM, first compound 0.01 µM): 17.3%
- viability, T/C [7]: 12.2%
- viability, T/C [8]: 10.4%
- viability, T/C (second compound 10 µM, first compound 0.000316 µM): 48.1%
- viability, T/C (second compound 10 µM, first compound 0.001 µM): 35.9%
- viability, T/C (second compound 10 µM, first compound 0.00316 µM): 25.4%
- viability, T/C (second compound 10 µM, first compound 0.01 µM): 12%
- viability, T/C [9]: 11.4%
- viability, T/C [10]: 8.97%

Compound: CC1(C)CCC(CN2CCN(c3ccc(C(=O)NS(=O)(=O)c4ccc(NCC5CCOCC5)c([N+](=O)[O-])c4)c(Oc4cnc5[nH]ccc5c4)c3)CC2)=C(c2ccc(Cl)cc2)C1 + CC(C)NCC(C(=O)N1CCN(c2ncnc3c2C(C)CC3O)CC1)c1ccc(Cl)cc1
- IC50 (second compound 0.1 µM): 5570 nM
- IC50 (second compound 0.316 µM): 5150 nM
- IC50 (second compound 1 µM): 3840 nM
- IC50 (second compound 3.16 µM): 1560 nM
- IC50 (second compound 10 µM): < 31.6 nM
- viability, T/C [1]: 97.1%
- viability, T/C [2]: 96.7%
- viability, T/C [11]: 101%
- viability, T/C [12]: 95.3%
- viability, T/C [13]: 83%
- viability, T/C [14]: 15.7%
- viability, T/C [3]: 79.9%
- viability, T/C [4]: 90.2%
- viability, T/C [15]: 89.2%
- viability, T/C [16]: 81.9%
- viability, T/C [17]: 77.1%
- viability, T/C [18]: 13.5%
- viability, T/C [5]: 66.9%
- viability, T/C [6]: 66.5%
- viability, T/C [19]: 66.4%
- viability, T/C [20]: 63%
- viability, T/C [21]: 58.2%
- viability, T/C [22]: 11.1%
- viability, T/C [7]: 53.3%
- viability, T/C [8]: 54.3%
- viability, T/C [23]: 51.3%
- viability, T/C [24]: 53.4%
- viability, T/C [25]: 45.9%
- viability, T/C [26]: 10.2%
- viability, T/C [9]: 46.7%
- viability, T/C [10]: 46.9%
- viability, T/C [27]: 46.8%
- viability, T/C [28]: 42.3%
- viability, T/C [29]: 40.9%
- viability, T/C [30]: 5.27%

Compound: CCCS(=O)(=O)Nc1ccc(F)c(C(=O)c2c[nH]c3ncc(-c4ccc(Cl)cc4)cc23)c1F + CC(C)NCC(C(=O)N1CCN(c2ncnc3c2C(C)CC3O)CC1)c1ccc(Cl)cc1
- IC50 (second compound 0.1 µM): 4680 nM
- IC50 (second compound 0.316 µM): 3600 nM
- IC50 (second compound 1 µM): 3170 nM
- IC50 (second compound 3.16 µM): 1350 nM
- IC50 (second compound 10 µM): < 31.6 nM
- viability, T/C [1]: 97.9%
- viability, T/C [2]: 95.8%
- viability, T/C [11]: 92.3%
- viability, T/C [12]: 89.9%
- viability, T/C [13]: 71.2%
- viability, T/C [14]: 9.19%
- viability, T/C [3]: 94.8%
- viability, T/C [4]: 83.4%
- viability, T/C [15]: 88.3%
- viability, T/C [16]: 82.6%
- viability, T/C [17]: 55.3%
- viability, T/C [18]: 7.94%
- viability, T/C [5]: 69.2%
- viability, T/C [6]: 71.2%
- viability, T/C [19]: 74.1%
- viability, T/C [20]: 68.1%
- viability, T/C [21]: 50.1%
- viability, T/C [22]: 4.41%
- viability, T/C [7]: 56.5%
- viability, T/C [8]: 57.8%
- viability, T/C [23]: 51%
- viability, T/C [24]: 55.3%
- viability, T/C [25]: 35.8%
- viability, T/C [26]: 2.97%
- viability, T/C [9]: 48.3%
- viability, T/C [10]: 45.1%
- viability, T/C [27]: 49.5%
- viability, T/C [28]: 38.6%
- viability, T/C [29]: 27.5%
- viability, T/C [30]: 0.51%

— PubChem BioAssay AID2060331 (Molecular Pharmacology Branch, DTP, NCI, 2025)
